# Results reported in US10258603B2 (priority 2014, dated 2019).
# Molecular target: T1, CECR2 (Homo sapiens, UniProt Q9BXF3)
# T1 construct: 424-538 was cloned, expressed, and purified to homogeneity; Flag; made in house
# Assay: CECR2 TR-FRET Binding Assay
# Details: read-out: IC50
# Description: IC50 Measurements for Inhibitors Using CECR2 TR-FRET Binding Assay
# T1 sequence (Q9BXF3 424-538 limits assumed): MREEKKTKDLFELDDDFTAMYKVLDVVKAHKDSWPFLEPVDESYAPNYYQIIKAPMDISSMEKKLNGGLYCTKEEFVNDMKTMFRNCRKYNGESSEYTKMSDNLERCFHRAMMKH
row,Compound,IC50
1,"Cc1cccc(N2CCC(N(C)C(=O)c3cn(C)c(=O)c4[nH]ccc34)CC2)c1 [Example 173, N,6-dimethyl-N-[1-(m-tolyl)-4-piperidyl]-7-oxo-1H-pyrrolo[2,3-c]pyridine-4-carboxamide]",990 nM
2,"CN(C(=O)c1cn(C)c(=O)c2[nH]ccc12)C1CCN(c2ccc(C(F)(F)F)cc2)CC1 [Example 175, N,6-dimethyl-7-oxo-N-[1-[4-(trifluoromethyl)phenyl]-4-piperidyl]-1H-pyrrolo[2,3-c]pyridine-4-carboxamide]",760 nM
3,"CCc1cccc(N2CCC(N(C)C(=O)c3cn(C)c(=O)c4[nH]ccc34)CC2)c1 [Example 177, N-[1-(3-ethylphenyl)-4-piperidyl]-N,6-dimethyl-7-oxo-1H-pyrrolo[2,3-c]pyridine-4-carboxamide]",690 nM
4,CCN1CCC(CCN(C)C(=O)c2cn(C)c(=O)c3[nH]ccc23)CC1 [Example 182],410 nM
5,CC(C)N1CCC(CCN(C)C(=O)c2cn(C)c(=O)c3[nH]ccc23)CC1 [Example 183],490 nM
6,CN1CCC(CN(C)C(=O)c2cn(C)c(=O)c3[nH]ccc23)CC1 [Example 188],2000 nM
7,CN(CC1CCN(C2CC2)CC1)C(=O)c1cn(C)c(=O)c2[nH]ccc12 [Example 192],1400 nM
8,CN(CC1CCN(Cc2ccccc2F)CC1)C(=O)c1cn(C)c(=O)c2[nH]ccc12 [Example 201],990 nM
9,CN(CC1CCN(Cc2cccc(F)c2)CC1)C(=O)c1cn(C)c(=O)c2[nH]ccc12 [Example 202],1300 nM

# More lines, now with the values ahead:
row,IC50,Compound
1,1000 nM,"CN(C(=O)c1cn(C)c(=O)c2[nH]ccc12)C1CCN(c2ccccc2)CC1 [Example 172, N,6-dimethyl-7-oxo-N-(1-phenyl-4-piperidyl)-1H-pyrrolo[2,3-c]pyridine-4-carboxamide]"
2,590 nM,"CN(C(=O)c1cn(C)c(=O)c2[nH]ccc12)C1CCN(c2cccc(C(F)(F)F)c2)CC1 [Example 174, N,6-dimethyl-7-oxo-N-[1-[3-(trifluoromethyl)phenyl]-4-piperidyl]-1H-pyrrolo[2,3-c]pyridine-4-carboxamide]"
3,930 nM,"Cc1ccc(N2CCC(N(C)C(=O)c3cn(C)c(=O)c4[nH]ccc34)CC2)cc1 [Example 176, N,6-dimethyl-7-oxo-N-[1-(p-tolyl)-4-piperidyl]-1H-pyrrolo[2,3-c]pyridine-4-carboxamide]"
4,740 nM,"CCc1ccc(N2CCC(N(C)C(=O)c3cn(C)c(=O)c4[nH]ccc34)CC2)cc1 [Example 178, N-[1-(4-ethylphenyl)-4-piperidyl]-N,6-dimethyl-7-oxo-1H-pyrrolo[2,3-c]pyridine-4-carboxamide]"
5,730 nM,"CN1CCC(CCN(C)C(=O)c2cn(C)c(=O)c3[nH]ccc23)CC1 [Example 181, N,6-dimethyl-N-[2-(1-methyl-4-piperidyl)ethyl]-7-oxo-1H-pyrrolo[2,3-c]pyridine-4-carboxamide]"
6,470 nM,CN(CCC1CCN(C2CCC2)CC1)C(=O)c1cn(C)c(=O)c2[nH]ccc12 [Example 184]
7,910 nM,COCCN1CCC(CCN(C)C(=O)c2cn(C)c(=O)c3[nH]ccc23)CC1 [Example 185]
8,790 nM,"CN(CC1CCN(CC2CCCC2)CC1)C(=O)c1cn(C)c(=O)c2[nH]ccc12 [Example 187, N-[[1-(cyclopentylmethyl)-4-piperidyl]methyl]-N,6-dimethyl-7-oxo-1H-pyrrolo[2,3-c]pyridine-4-carboxamide]"
9,1000 nM,CN(CC1CCN(C2CCC2)CC1)C(=O)c1cn(C)c(=O)c2[nH]ccc12 [Example 189]
10,590 nM,CCN1CCC(CN(C)C(=O)c2cn(C)c(=O)c3[nH]ccc23)CC1 [Example 191]
11,730 nM,CC(c1ccccc1)N1CCC(CN(C)C(=O)c2cn(C)c(=O)c3[nH]ccc23)CC1 (centres unmarked) [Example 197]
12,1100 nM,CN(CC1CCN(Cc2ccc(F)cc2)CC1)C(=O)c1cn(C)c(=O)c2[nH]ccc12 [Example 203]
13,1100 nM,Cc1cccc(CN2CCC(CN(C)C(=O)c3cn(C)c(=O)c4[nH]ccc34)CC2)c1 [Example 204]
14,710 nM,CN(CC1CCN(C2CCCC2)CC1)C(=O)c1cn(C)c(=O)c2[nH]ccc12 [Example 205]
